The test system of series [1] is L1210. The experiment in a line: Antitumor activity against mouse L1210 cells allografted in mouse assessed as average survival time at 6.6 mg/kg, ip relative to untreated control. It counts as functional. The note with it: route intraperitoneal.
Series [2] relates to L1210. Description: Antitumor activity against mouse L1210 cells allografted in mouse assessed as average survival time at 10 mg/kg, ip relative to untreated control. It counts as functional. The note with it: route intraperitoneal.
Series [3] relates to L1210. The experiment in a line: Antitumor activity against mouse L1210 cells allografted in mouse assessed as average survival time at 15 mg/kg, ip relative to untreated control. The note with it: route intraperitoneal. It counts as functional.
For series [4], the system named is L1210. Description: Antitumor activity against mouse L1210 cells allografted in mouse assessed as average survival time at 22.5 mg/kg, ip relative to untreated control. It counts as functional. The note with it: route intraperitoneal.
The test system of series [5] is P388. Description: Antitumor activity against mouse P388 cells allografted in ip dosed mouse assessed as optimal dose. It counts as functional.
The subject of series [6] is P388. The experiment in a line: Antitumor activity against mouse P388 cells allografted in mouse assessed as average survival time at 6.6 mg/kg, ip relative to untreated control. It counts as functional. The note with it: route intraperitoneal.
The subject of series [7] is Mus musculus. Description: Toxicity in mouse allografted with mouse P388 cells at 6.6 mg/kg, ip. It counts as organism-based. On the set-up: dose 6.6 mg/kg, route intraperitoneal. The note with it: in vivo.
In series [8] the test system is L1210. The experiment in a line: Antitumor activity against mouse L1210 cells allografted in mouse assessed as average survival time at 4.4 mg/kg, ip relative to untreated control. It counts as functional. The note with it: route intraperitoneal.
The subject of series [9] is P388. The experiment in a line: Antitumor activity against mouse P388 cells allografted in mouse assessed as average survival time at 4.4 mg/kg, ip relative to untreated control. It counts as functional. The note with it: route intraperitoneal.
Series [10] has as its system Mus musculus. Description: Toxicity in mouse allografted with mouse P388 cells at 4.4 mg/kg, ip. It counts as organism-based. On the set-up: dose 4.4 mg/kg, route intraperitoneal. The note with it: in vivo.
In series [11] the test system is P388. The experiment in a line: Antitumor activity against mouse P388 cells allografted in mouse assessed as average survival time at 2.9 mg/kg, ip relative to untreated control. It counts as functional. The note with it: route intraperitoneal.
In series [12] the test system is Mus musculus. Description: Toxicity in mouse allografted with mouse P388 cells at 2.9 mg/kg, ip. It counts as organism-based. Also noted: dose 2.9 mg/kg, route intraperitoneal. The note with it: in vivo.
Series [13] relates to P388. The experiment in a line: Antitumor activity against mouse P388 cells allografted in mouse assessed as average survival time at 20 mg/kg, ip relative to untreated control. It counts as functional. The note with it: route intraperitoneal.
Series [14] concerns Mus musculus. The experiment in a line: Toxicity in mouse allografted with mouse P388 cells at 20 mg/kg, ip. It counts as organism-based. Also noted: dose 20 mg/kg, route intraperitoneal. The note with it: in vivo.

Consider `COc1cccc2c1C(=O)c1c(O)c3c(c(O)c1C2=O)C[C@@](O)(C(=O)CO)C[C@@H]3O[C@H]1C[C@H](N)[C@@H](OC)[C@H](C)O1`, for which the T/C (as a rule, the ratio of treated to control) is reported as 169% in series [1], 187% in [2], 181% in series [3] and 87% in [4].
`COc1cccc2c1C(=O)c1c(O)c3c(c(O)c1C2=O)C[C@@](O)(C(=O)CO)C[C@@H]3O[C@H]1C[C@H](N)[C@H](OC)[C@H](C)O1`: the Optimal dose in [5] is 6.6 mg/kg. The T/C in series [6] is listed as 270%; in [8], 287%; in series [1], 231%; in series [2] it was 62%. Besides, the Activity entry in series [7] was “Non-toxic”.
In the case of `COc1cccc2c1C(=O)c1c(O)c3c(c(O)c1C2=O)C[C@@](O)(C(=O)CO)C[C@@H]3O[C@H]1C[C@H](N)[C@H](O)[C@H](C)O1` [DOXORUBICIN], in series [5], the Optimal dose is 4.4 mg/kg. The T/C in [9] is 254%; in [8] it was 169%; in series [1], 175%; in series [2], 187%. Besides, the Activity entry in [10] is reported as “Non-toxic”.
With `COc1cccc2c1C(=O)c1c(O)c3c(c(O)c1C2=O)C[C@@](O)(C(C)=O)C[C@@H]3O[C@H]1C[C@H](N)[C@H](O)[C@H](C)O1` [DAUNORUBICIN], the Optimal dose in series [5] turned out to be 2.9 mg/kg. Also, in [11], the T/C is reported as 169%. Besides, the Activity entry in series [12] is “Non-toxic”.
For the molecule `COc1cccc2c1C(=O)c1c(O)c3c(c(O)c1C2=O)C[C@@](O)(C(C)=O)C[C@@H]3O[C@H]1C[C@H](N)[C@@H](OC)[C@H](C)O1`, the Optimal dose in series [5] stood at 20 mg/kg. Moreover, the T/C in series [13] came to 174%. Moreover, the Activity result in [14] is listed as “Non-toxic”.
As to `COc1cccc2c1C(=O)c1c(O)c3c(c(O)c1C2=O)C[C@@](O)(C(C)=O)C[C@@H]3O[C@H]1C[C@H](N)[C@H](OC)[C@H](C)O1`, in series [5], the Optimal dose worked out at 2.9 mg/kg. The T/C in series [11] worked out at 156%. For the same molecule, in series [12], the Activity result is reported as “Non-toxic”.

For the origin of these results see ChEMBL document CHEMBL3227963, “Synthesis and antitumor activity of 4'-O-methyldaunorubicin, 4'-O-methyladriamycin, and their 4'-epi analogues” (J Med Chem, 1979).
